Where no end group is shown, it is not given here.
Key:
[1] = target: PsbE protein, the α subunit of Cytochrome b559 (spinach (endogenous in PSII membranes from spinach leaves)) (UniProt P69383)
Cyt b559 in PSII = assay: Redox forms of Cyt b559 by stepwise reductive titration (absorption difference spectroscopy), reconstituted NaCl-washed PSII membranes; assay type: biochemical, spinach
Excerpt: Hydroquinone-reduced minus ferricyanide-oxidized (1), ascorbate-reduced minus ferricyanide-oxidized (2), and dithionite-reduced minus ferricyanide-oxidized (3) difference spectra were used to estimate the amount of the HP, IP, and LP forms of Cyt b559, respectively. Each spectrum was an average of three independent measurements and normalized to the peak of the dithionite-reduced minus ferricyanide-oxidized difference spectrum. (B) Relative content of the HP, IP, and LP forms of Cyt b559 determined by stepwise reductive titration. Total amount of Cyt b559 is set as 100%. […] (*p < 0.05, Student’s t-test); n = 3, error bars = SEM.
PSII membranes, isolated from spinach leaves[56], were treated for 30 min with the buffer containing 1.5 M NaCl on ice to remove PsbP and PsbQ. […] In the control, MES buffer, without any peptide fragments, was used. After incubation for 1 h on ice, the reconstituted PSII samples were carried forward to determine the state of their redox forms of Cyt b559, oxygen-evolving activity, FTIR analysis and TL measurements. Where indicated, PSII samples were washed once, before the analysis, with buffer (25 mM MES-NaOH, pH 6.5, 5 mM NaCl, 5 mM CaCl2, 0.4 M sucrose).
PSII membranes were suspended at a Chl concentration of 75 μg ml^−1 in buffer (25 mM MES-NaOH, pH 6.5, 5 mM NaCl, 5 mM CaCl2, 0.4 M sucrose) and the different redox forms of Cyt b559 were determined at a wavelength of 559 nm, from the reduced minus oxidized difference absorption spectra between 520 and 580 nm, recorded as described previously[34][35][57] using a spectrophotometer equipped with a head-on photomultiplier tube (UV-2600; Shimadzu, Kyoto, Japan). Complete oxidation of Cyt b559 was achieved by treatment with 2 mM potassium ferricyanide (midpoint redox potential Em ~ 430 mV) followed by its stepwise reduction. The reduction of the HP form (Em ~ 400 mV), the IP form (Em ~ 200 mV), and the LP form (Em ~ 50 mV) of Cyt b559[7][58][59][60] were performed by adding 4 mM hydroquinone (Em ~ 280 mV), 5 mM sodium ascorbate (Em ~ 60 mV), and 10 mM sodium dithionite (Em ~ −660 mV) in a step-wise manner. The absorption difference at 559 nm, in difference spectra of hydroquinone-reduced minus ferricyanide-oxidized, ascorbate-reduced minus hydroquinone-reduced, and dithionite-reduced minus ascorbate-reduced Cyt b559, enable the content of HP, IP, and LP form of Cyt b559, to be deduced, respectively. Baselines were set by drawing a straight line between absorption differences at 540 and 580 nm.

PSII = assay: Oxygen-evolving activity of reconstituted PSII membranes (Clark-type oxygen electrode); assay type: biochemical, spinach; settings: NaCl-washed PSII membranes, peptide:PSII 50:1 to 200:1, 5 mM CaCl2 and 5 mM NaCl, pH 6.5, 0.4 mM DCBQ; membranes without reconstitution = 100% (251 ~ 317 μmol O2 mg Chl^-1 h^-1); n = 3
Description: PSII oxygen-evolving activity was measured in the presence of 5 mM CaCl2 and 5 mM NaCl, and the rate of oxygen-evolution of PSII membranes without reconstitution was set at 100% (251 ~ 317 μmol O2 mg Chl^−1 h^−1 in independent experiments); n = 3, error bars = SEM. […] Oxygen-evolving activity here was measured in the presence of 5 mM CaCl2 and 5 mM NaCl, and the rate of oxygen-evolution for the PSII membranes without reconstitution (the control) was set at 100% (261 μmol O2 mg Chl^−1 h^−1).
PSII membranes, isolated from spinach leaves[56], were treated for 30 min with the buffer containing 1.5 M NaCl on ice to remove PsbP and PsbQ. […] In the control, MES buffer, without any peptide fragments, was used. After incubation for 1 h on ice, the reconstituted PSII samples were carried forward to determine the state of their redox forms of Cyt b559, oxygen-evolving activity, FTIR analysis and TL measurements. Where indicated, PSII samples were washed once, before the analysis, with buffer (25 mM MES-NaOH, pH 6.5, 5 mM NaCl, 5 mM CaCl2, 0.4 M sucrose). The oxygen-evolving activity of each PSII membrane sample was measured in this same buffer using a Clark-type oxygen-electrode (Hansatech, UK) in the presence of 0.4 mM 2,6-dichloro-p-benzoquinone (DCBQ) as an electron acceptor.

[2] = system: OEC (Mn4CaO5 cluster) in PSII; assay: Light-induced S2/S1 FTIR difference spectroscopy; assay type: biochemical, spinach; settings: peptide:PSII 200:1, pH 6.0, 5 mM CaCl2, 5 mM NaCl, 10 °C, 1800–1200 cm^-1
Description: FTIR measurements were performed following the method reported previously[20][61] with some modifications. NaCl-washed PSII membranes were suspended (2.5 mg Chl ml^−1) in a buffer containing 4 mM MES-NaOH, 40 mM sucrose, 5 mM CaCl2, and 5 mM NaCl (pH 6.0). […] The resultant sample film was moderately hydrated by sealing the cell using another CaF2 plate and a silicone spacer (0.5 mm in thickness) enclosing 2 μl of 40% (v/v) glycerol solution without touching the sample. The sample temperature was adjusted to 10 °C by circulating cold water in a copper holder. Light-induced S2-minus-S1 difference spectra (S2/S1 spectra) were recorded using a spectrophotometer (VERTEX 80, Bruker Optics) equipped with an MCT detector (InfraRed D313-L) at 4 cm^−1 resolution (20, 61). A Ge filter to cut IR light at >2200 cm^−1 (Andover, 4.50ILP-25) was placed in the IR path in front of the sample to improve the signal-to-noise ratios of spectra as well as to block a He-Ne laser beam from the interferometer. Illumination was provided by a Q-switched Nd:YAG laser (INDI-40-10; 532 nm, ~ 7 ns full width at half-maximum, and ~ 7 mJ pulse^–1 cm^–2 at the sample surface; Spectra-Physics, UK). Single-beam spectra were recorded with 100 scans (~50-s accumulation) before and after single-flash illumination to calculate a difference spectrum, and the measurements were repeated 20 times with an interval of 25 min.

Substance | content of the HP form of Cyt b559 in NaCl-washed PSII membranes after reconstitution at 4:1 (PsbP:PSII); about 34% without reconstitution [1] [%] | Relative content of the HP form of Cyt b559 (Cyt b559 in PSII; NaCl-washed PSII membranes reconstituted with PsbP proteins at 4:1 or peptides at 200:1 (to PSII), 1 h on ice, 25 mM MES-NaOH pH 6.5, 5 mM NaCl, 5 mM CaCl2, 0.4 M sucrose, 559 nm, total Cyt b559 = 100%, n = 3 (controls: intact 59.3, NaCl-washed 33.7)) [%] | Relative content of the LP form of Cyt b559 (Cyt b559 in PSII; NaCl-washed PSII membranes reconstituted with PsbP proteins at 4:1 or peptides at 200:1 (to PSII), 1 h on ice, pH 6.5, total Cyt b559 = 100%, n = 3 (controls: intact 8.7, NaCl-washed 10.4)) [%] | Relative content of the IP form of Cyt b559 (Cyt b559 in PSII; NaCl-washed PSII membranes reconstituted with PsbP proteins at 4:1 or peptides at 200:1 (to PSII), 1 h on ice, pH 6.5, total Cyt b559 = 100%, n = 3 (controls: intact 32.0, NaCl-washed 55.9)) [%] | Restoration of HP Cyt b559 (in words) (Cyt b559 in PSII; reconstituted NaCl-washed PSII membranes, pH 6.5) | Rate of oxygen evolution (in words) (PSII) | S2/S1 FTIR spectral intensity [2]
recombinant PsbP-WT protein from Spinacia oleracea (from UniProt P12302 82-267) (natural protein) | 58 |  |  |  |  |  | 
pN15-∆A^1: pN15 lacking its N-terminal Ala^1 (YGEAANVFGKPKKN-NH2; UniProt P12302 83-96, looked up, fragment) |  | 38.2 | 13.6 | 48.2 | This effect was not observed | none of these mutated pN15 fragments showed any inhibitory effect on oxygen evolution | moderate inhibitory effect
